Data from PMC9100525, “CsCuAOs and CsAMADH1 Are Required for Putrescine-Derived γ-Aminobutyric Acid Accumulation in Tea” (Foods, 2022).

Assays:
Format in all cases: biochemical
CsAMADH1 = target: T1, CsAMADH1 (Camellia sinensis, UniProt I7F760); test: NADH formation at […] nm; Lineweaver-Burk; details: 0.1 M potassium phosphate pH 8.0; 0.001 M NAD+ as co-substrate; unit "Mm" [sic] (substrate range 0.1-100 mM)
T1 construct: recombinant GST fusion, pGEX-4T-1, purified; plastid-localized; gene from Tea Plant Information Archive, locus id not given
T1 sequence (I7F760 1-505): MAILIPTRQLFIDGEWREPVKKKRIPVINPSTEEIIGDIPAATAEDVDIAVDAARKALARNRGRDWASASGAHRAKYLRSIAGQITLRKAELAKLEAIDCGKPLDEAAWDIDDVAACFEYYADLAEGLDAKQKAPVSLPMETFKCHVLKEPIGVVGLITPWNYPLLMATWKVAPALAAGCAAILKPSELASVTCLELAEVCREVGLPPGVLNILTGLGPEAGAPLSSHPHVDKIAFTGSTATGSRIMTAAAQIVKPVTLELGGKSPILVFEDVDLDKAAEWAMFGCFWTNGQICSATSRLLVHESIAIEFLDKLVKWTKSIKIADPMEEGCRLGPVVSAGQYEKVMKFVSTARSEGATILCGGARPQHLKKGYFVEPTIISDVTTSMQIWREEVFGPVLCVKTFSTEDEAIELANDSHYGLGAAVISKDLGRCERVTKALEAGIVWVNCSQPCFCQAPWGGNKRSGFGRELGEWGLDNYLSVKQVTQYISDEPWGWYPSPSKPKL

CsCuAO3 = target: T2, CsCuAO3 (Camellia sinensis, UniProt A0A4S4DQ49); test: peroxidase-coupled 4-aminoantipyrine/N,N-dimethylaniline assay at […] nm; Lineweaver-Burk; details: 0.1 M potassium phosphate pH 6.5; O2 co-substrate; unit "Mm" [sic] (substrate range 0.1-100 mM)
T2 construct: gene TEA_013658; recombinant GST fusion, pGEX-4T-1, purified; peroxisomal; copper/TPQ enzyme, CuAOs stated as homodimer in general; gene from Tea Plant Information Archive, locus id not given
T2 sequence (A0A4S4DQ49 1-679): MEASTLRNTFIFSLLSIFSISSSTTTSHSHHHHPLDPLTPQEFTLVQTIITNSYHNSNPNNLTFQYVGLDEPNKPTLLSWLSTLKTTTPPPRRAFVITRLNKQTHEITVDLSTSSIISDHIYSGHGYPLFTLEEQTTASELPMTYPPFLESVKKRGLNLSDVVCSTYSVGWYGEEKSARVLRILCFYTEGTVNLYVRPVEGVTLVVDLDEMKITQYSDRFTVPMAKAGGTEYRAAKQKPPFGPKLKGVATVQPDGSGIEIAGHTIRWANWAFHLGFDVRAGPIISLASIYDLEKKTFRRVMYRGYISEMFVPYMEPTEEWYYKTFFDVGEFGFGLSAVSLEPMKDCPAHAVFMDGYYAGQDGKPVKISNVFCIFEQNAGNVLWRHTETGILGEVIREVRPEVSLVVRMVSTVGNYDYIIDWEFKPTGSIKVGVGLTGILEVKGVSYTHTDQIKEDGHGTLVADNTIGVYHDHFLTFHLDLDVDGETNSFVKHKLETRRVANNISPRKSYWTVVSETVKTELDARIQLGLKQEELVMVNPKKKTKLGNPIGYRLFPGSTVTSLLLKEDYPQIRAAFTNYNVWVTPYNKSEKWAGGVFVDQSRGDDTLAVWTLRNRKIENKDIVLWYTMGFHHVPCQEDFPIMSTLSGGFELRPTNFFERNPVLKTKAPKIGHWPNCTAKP

CsCuAO1 = target: T3, CsCuAO1 (Camellia sinensis, UniProt A0A4S4D8A3); test: as above; details: 0.1 M potassium phosphate pH 6.5; O2 co-substrate; unit "Mm" [sic] (substrate range 0.1-100 mM)
T3 construct: gene TEA_026770; recombinant GST fusion, pGEX-4T-1, purified; peroxisomal; copper/TPQ enzyme, CuAOs stated as homodimer in general; gene from Tea Plant Information Archive, locus id not given
T3 sequence (A0A4S4D8A3 1-662): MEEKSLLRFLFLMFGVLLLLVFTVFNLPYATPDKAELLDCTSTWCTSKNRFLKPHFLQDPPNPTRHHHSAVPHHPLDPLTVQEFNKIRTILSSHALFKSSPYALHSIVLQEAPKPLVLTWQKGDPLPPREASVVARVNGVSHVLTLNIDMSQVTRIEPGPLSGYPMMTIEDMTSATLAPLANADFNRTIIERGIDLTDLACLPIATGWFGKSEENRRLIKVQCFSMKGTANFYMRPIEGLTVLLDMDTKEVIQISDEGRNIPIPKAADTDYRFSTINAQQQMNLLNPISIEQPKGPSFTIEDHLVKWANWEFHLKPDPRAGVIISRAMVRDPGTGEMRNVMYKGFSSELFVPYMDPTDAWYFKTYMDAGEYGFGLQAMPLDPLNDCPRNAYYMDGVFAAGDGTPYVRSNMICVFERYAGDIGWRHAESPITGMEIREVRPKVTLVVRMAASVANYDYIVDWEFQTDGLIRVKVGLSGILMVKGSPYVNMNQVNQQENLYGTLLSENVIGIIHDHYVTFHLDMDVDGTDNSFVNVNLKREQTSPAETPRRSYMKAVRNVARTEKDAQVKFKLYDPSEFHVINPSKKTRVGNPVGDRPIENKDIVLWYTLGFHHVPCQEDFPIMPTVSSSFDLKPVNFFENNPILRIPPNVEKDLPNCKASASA

SMILES | Km (CsAMADH1) | Km (CsCuAO3) | Km (CsCuAO1)
NCCCC=O [4-ABAL] | 25.7 Mm | – | –
NCCCCN [putrescine] | – | 15.8 Mm | 21.9 Mm
